According to US6787356B1, “Cell expansion system for use in neural transplantation” (The United States of America as represented by the …, priority 1998, dated 2004):

Columns and labels:
[1] = system: mesencephalic precursors expanded with bFGF for 11 days; conditions: dopamine 1 nM-1 mM; cAMP 1 mM; DMEM/F12/N2
[2] = system: E12 mesencephalic precursors; assay: Dopaminergic differentiation of long-term expanded mesencephalic precursors, TH-ir cell count per well; assay type: cell-based, rat; conditions: for effect of antioxidants on dopaminergic cell number: FIG. 5, FIG. 6
Experimental: Ascorbic acid was obtained from SIGMA (A-1417: Lot 105H0138) and used at various concentrations ranging from 1 nM-1 mM to obtain a dose-response curve. The effect of ascorbic acid on dopaminergic differentiation of long-term expanded mesencephalic precursors was tested during early and late proliferation as well as during cell differentiation.
Briefly, E12 mesencephalic precursors were proliferated for 12-14 days in vitro with 20 ng/ml bFGF (average expansion factor 40-200 fold) followed by 4-7 days of differentiation upon bFGF withdrawal and exposure to the various differentiation agents refers to the experimental assay in general. We tested the effects of many possible differentiation agents such as NGF, BDNF, NT3, NT4/5, GDNF, SHH, FGF8, interleukin1, Neurturin, cGMP and many others.
Cells were treated with 100 uM ascorbic acid. Ascorbic acid was dissolved in PBS with 0.1% bovine serum albumin at 100 mM stock solution. It was then used in 1:1000 dilution by adding it directly into the culture medium Cells were then fixed in 0.15% picric acid/4% paraformaldehyde and stained for tyrosine-hydroxylase (PelFreeze P40101-0). The number of TH-ir cells per well were scored using a stereological counting frame.
A dose response curve of the effect of stereoisomer D-iso-ascorbic acid was established using D-iso Ascorbic acid (I-0502 SIGMA). D-iso-ascorbic acid was used with the same protocol as L-ascorbic acid regarding stock solution, concentrations and mode of application. D-iso ascorbic acid has the same anti-oxydative properties but different other biological properties than ascorbic acid.

[3] = system: ventral mesencephalon cells of E12 rat embryos; assay: Tissue culture expansion of mesencephalic precursors with bFGF; assay type: cell-based; conditions: from 800×10^3 cells; 10-20 ng bFGF/ml medium daily; N=12
Experimental: Tissue was obtained from the ventral mesencephalon of E12 rat embryos (Sprague Dawley, plug day=day 0,) as described by Studer et al. in Current Protocols in Neuroscience (eds McKay, R. D. & Gerfen, C. R.) John Wiley & Sons Inc., New York, (1997).
Tissue pieces were spun in a centrifuge at 209 g for 5 minutes and mechanically triturated to a quasi single cell suspension in HBSS and counted. 5 ml of cell suspension at a concentration of 150-200×10^3 cells/ml was plated on a 10 cm culture dish containing DMEM/F12/N2 medium (Bottenstein, J. E. & Sato, G. H. Growth of a rat neuroblastoma cell line in serum-free supplemented medium. Proc.Natl.Acad.Sci.USA 76, 514-517 (1979) (modified according to Johe, K. K., Hazel, T. G., Müller, T., Dugich-Djordjevic, M. M. & McKay, R. D. G. Single factors direct the differentiation of stem cells from the fetal and adult central nervous system. Genes and Development 10, 3129-3140 (1996)) that had been previously coated with polyornithine (15 ug/ml) and fibronectin (1 ug/ml).
bFGF was added to the culture medium on a daily basis to a final concentration of 10-20 ng bFGF/ml medium. The medium was changed every other day.
Additionally, after treatment with bFGF all surviving cells were immunoreactive for the nestin intermediate filament a marker for immature neuroepithelial precursors. […]

[4] = system: expanded and differentiated mesencephalic precursors; assay: KCl evoked dopamine release of differentiated expanded precursors, HPLC; assay type: cell-based, rat
Experimental: Tissue culture was prepared as described in Example 1. The growth medium of expanded precursors from 3 independent culture series was collected after 5-7 days of differentiation under serum-free conditions and immediately stabilized by adding 88 μl of 85% orthophosphoric acid and 4.4 mg of metabisulfite to each sample ml. Additional cultures of the same series were placed in 5 ml Hank's basic salt solution (HBSS) for […] at 37° C. either under basal conditions (HBSS only) or under stimulation with 56 mM KCl. 56 mM KCl was added to assay evoked release, i.e., dopamine release in response to depolarization by KCl (depolarization by KCl leads to release of synaptic vesicles in neurons). This provides a more specific test than release in HBSS where synaptic release is not directly tested.
Dopamine staining was carried out on cultures using dopamine polyclonal 1:500 (Chemicon). The cultures were fixed in 5% glutaraldehyde and 1% metabisulfite in Tris buffer and then kept in metabisulfite containing solutions prior to incubation in the secondary antibody. Dopamine was extracted by aluminum adsorption as described by Studer et al. (1996) Brain Res.Bull. 41, 143-150. […] No dopamine was detected in unconditioned control medium and HBSS.

[5] = system: bFGF expanded precursor derived TH+ neurons; assay: Dopamine release of precursor derived TH+ neurons, reverse phase HPLC with electrochemical detection; assay type: cell-based, rat; conditions: conditioned medium, buffer solution, buffer + 56 mM KCl; FIG. 7 and 8
Experimental: To test the biochemical function of precursor derived tyrosine hydroxylase expressing (TH+) neurons, the supernatant was tested for dopamine release using reverse phase HPLC with electrochemical detection. Dopamine levels were assessed in conditioned medium (24 hours of incubation), HBSS buffer (15 minutes), HBSS buffer +56 mM KCl. Dopamine was subsequently extracted by aluminum absorption and measured by reverse phase HPLC with electrochemical detection.

[6] = system: differentiated mesencephalic precursor culture; assay: Oxidative stress assays (lipid peroxydation, H2O2, oxidative stress marker staining); assay type: cell-based, rat; conditions: data not shown
Experimental: Lipid peroxydation is a colorimetric assay (OXIS BIOXYTECH® LPO-568™; Oxis International Inc.) and was used according to the specifications of the manufacturer. H2O2 assay measures the conversion of 2′,7′ dicholorofluorescin diacetate (Molecular Probes d-399) into 2′,7′ dicholorofluorescin catalyzed by H2O2. The assay was performed according to the specifications of the manufacturer. Immunohistochemistry for oxidative stress markers by the DAB-peroxidase technique was performed on cells differentiated in the presence or absence of ascorbic acid, glutathione or […] plus ebselin.

[7] = system: expanded mesencephalic precursors differentiated as free floating reaggregates; assay: Reaggregation system (roller drum) differentiation, immunohistochemistry of reaggregates; assay type: cell-based, rat; conditions: for total number of TH-ir cells/sphere in serum-supplemented medium: GDNF, BDNF, NT4/5 10 ng/ml, SHH 2.5 μg/ml, data not shown
Experimental: Cells were cultured as described in Example 1 and differentiated as free floating aggregates in a medium containing 10% fetal bovine serum (FBS) and maintained in a roller drum system. The cell suspension (200,000 cells/ml) was distributed in 15 ml Falcon tubes (1 ml/tube) and placed in a roller drum (Bellco) and rotated at a speed of 1-4 revolutions per minute and a temperature of 37° C. in a dry incubator (no additional humidity) in an atmosphere containing 5% CO2.
Medium in all these experiments described in this section was Neurobasal/B27 as described above. We tested the effect of GDNF, BDNF, SHH in the presence and in the absence of 10% fetal bovine serum (always with Neurobasal/B27 medium as a “basal medium”)
After 7 days, the test tubes were removed from the roller drum and the reaggregation of the cells was examined immunohistochemistry after sectioning the cells (see below). […] Reaggregates were fixed in 4% paraformalehyde/0.15 picric acid in PBS for 30-60 minutes at room temperature, equilibrated in 30% sucrose, cut into 20 um thick sections on a freezing microtome and adhered to a gelatine precoated glass carrier according to standard histological guidelines.
The differentiation medium for reaggregate cultures consisted of Neurobasal®/2% B27® (Gibco, Life Technologies) with or without fetal bovine serum (FBS; 10%, Gibco), glial derived neurotrophic factor (GDNF; 10 ng/ml; Peprotech), brain derived neurotrophic factor (BDNF; 10 ng/ml; Peprotech), neurotrophin 4/5 (NT4/5; 10 ng/ml; Peprotech), SHH (2.5 μg/ml; kindly provided by Dr. Thomas Muller, at the Labrotory of Molecular Biology, currently at the Max Delbrueck Univ. in Berlin; SHH is now commercially avail. fro R&D).
Using standard immunohistochemical procedures known to those of skill in the art, the following antibodies were used to examine the neuronal phenotypes present in differentiated aggregates: GABA polyclonal 1:2000 (SIGMA), serotonin polyclonal 1:8000 (SIGMA), ChAT polyclonal 1:500 (Chemicon), GFAP polyclonal 1:100 (Chemicon), GalC monoclonal 1:50 (Boehringer-Mannheim),
Total graft volume was estimated using the Cavalieri's estimator as described by Gundersen et al. (1988) APIMS 96, 379-394. TH-ir cells were counted within the outlined graft area as used for volume estimation. Uniform randomly chosen sections of individual reaggregates were analyzed for the total number of TH-ir cells by means of a stereological grid (fractionator). Conventional and confocal images were obtained with Axiophot and Axiovert microscopes respectively (Zeiss). Confocal image stacks were acquired by single and dual wavelength excitation at 488 and 568 nm. […] The effect of serum and growth factors was analyzed using ANOVA and Dunnett posthoc comparisons. […]

NCCc1ccc(O)c(O)c1 [dopamine]
additional effect on yield of dopaminergic neurons in combination with ascorbic acid (100 uM) [1]: no significant additional effect

O=c1c2ccccc2[se]n1-c1ccccc1 [ebselin]
effect of antioxidants on dopaminergic cell number [2]: none of the antioxidants tested influenced dopaminergic cell number

O=C1O[C@H]([C@H](O)CO)C(O)=C1O [D-iso ascorbic acid, D-iso-ascorbic acid]
number of dopaminergic neurons, lower than in the ascorbic acid group ([2]; optimum concentration of 100 μM): 48%

N[C@@H](CCC(=O)N[C@@H](CS)C(=O)NCC(=O)O)C(=O)O [glutathione]
effect of antioxidants on dopaminergic cell number [2]: none of the antioxidants tested influenced dopaminergic cell number

bFGF: basic fibroblast growth factor, added to proliferating medium to expand precursor cells
cell number after 1 week of treatment with bFGF [3]: 7,417×10^3+/−1,066×10^3 cells

[Cl-].[K+] [KCl]
increase in dopamine levels in the supernatant ([4]; 56 mM KCl in HBSS for 25 minutes vs HBSS only): 3-4 fold
dopamine level in the supernatant, evoked release ([4]; 56 mM KCl in HBSS for 25 minutes, N=3): 572+/−145 pg dopamine/ml

CC(=O)N[C@H](CS)C(=O)O [D-acetylcystein]
effect of antioxidants on dopaminergic cell number [2]: none of the antioxidants tested influenced dopaminergic cell number

O=C1O[C@H]([C@@H](O)CO)C(O)=C1O [ascorbic acid]
dopamine levels after treatment, long-term expanded precursors (P1) [5]: significant increase
dopamine levels after treatment, short term expanded precursors (Po) [5]: significant increase
differences to control in lipid peroxydation, H2O2 levels and staining intensity for oxydative stress markers [6]: No significant differences
yield of dopaminergic neurons compared with other differentiation agents tested ([2]; 100 uM, 12-14 days expansion, 4-7 days differentiation): most effective agent of all agents tested
effect on dopaminergic yield, treatment during cell differentiation (P1 diff.) ([2]; FIG. 6): acts mostly during the differentiation phase
effect on dopaminergic yield, treatment during early expansion (Po exp.) ([2]; FIG. 6): small improvement in dopaminergic yield
effect on dopaminergic yield, treatment during late expansion (P1 exp.) ([2]; FIG. 6): slightly negative effect
concentration of maximal effect on TH-ir cell number (dose-response) ([2]; during cell differentiation, range 1 nM-1 mM, FIG. 5): 100 µM

B1: GDNF: glial derived neurotrophic factor, Peprotech (protein, UniProt P39905 78-211, looked up)
Glial cell line-derived …: SPDKQMAVLPRRERNRQAAAANPENSRGKGRRGQRGKNRGCVLTAIHLNVTDLGLGYETKEELIFRYCSGSCDAAETTYDKILKNLSRNRRLVSDKVGQACCRPIAFDDDLSFLDDNLVYHILRKHSAKRCGCI
TH-ir cell yield under serum-free conditions ([7]; GDNF 10 ng/ml, N=8, p<0.05 vs control): 3451+/−621
total number of TH-ir cells/sphere in serum-supplemented medium [7]: did not cause a significant increase

B2: BDNF: brain derived neurotrophic factor, Peprotech (protein, UniProt P23560 19-247, looked up)
Neurotrophic factor BDNF …: APMKEANIRGQGGLAYPGVRTHGTLESVNGPKAGSRGLTSLADTFEHVIEELLDEDQKVRPNEENNKDADLYTSRVMLSSQVPLEPPLLFLLEEYKNYLDAANMSMRVRRHSDPARRGELSVCDSISEWVTAADKKTAVDMSGGTVTVLEKVPVSKGQLKQYFYETKCNPMGYTKEGCRGIDKRHWNSQCRTTQSYVRALTMDSKKRIGWRFIRIDTSCVCTLTIKRGR
total number of TH-ir cells/sphere in serum-supplemented medium [7]: did not cause a significant increase

B3: NT4/5: neurotrophin 4/5, Peprotech (protein, UniProt P34130 81-210, looked up)
Neurotrophin-4: GVSETAPASRRGELAVCDAVSGWVTDRRTAVDLRGREVEVLGEVPAAGGSPLRQYFFETRCKADNAEEGGPGAGGGGCRGVDRRHWVSECKAKQSYVRALTADAQGRVGWRWIRIDTACVCTLLSRTGRA
total number of TH-ir cells/sphere in serum-supplemented medium [7]: did not cause a significant increase
